Test results published in US6444668B1 (Wyeth, priority 1999, dated 2002).
Several values for one entry are separate records, joined by “and”; a condition that tells them apart may be missing. Equal values may be shown once. Read-outs that look alike come from different tables or passages of the source. Each block holds one compound with its values, some of them ahead of it.

Key:
[1] = test system: rat uterine decidualization; test: Rat decidualization assay; type: in vivo; details: for Estimated average EC50 (decidual response) / Estimated EC50 for uterine wet weight (decidual response): s.c.; for Estimated average EC50 (decidual response): average of dose-response curves; for Estimated EC50 for uterine wet weight (decidual response): individual studies; for Decidualization IC50: half-maximal decrease in EC50 progesterone induced decidual response
Procedure: 1. Rat Decidualization Assay
b. Animals (RACUC Protocol #5002)
The animals are treated once daily for seven days.
Uteri are removed and trimmed of fat.
Body weight: Mean total animal body weight (default-kg)
Decidual response: [(D-C)/C]x100%

T47D cells = test: T47D cell proliferation assay (BrdU incorporation); type: cell-based; details: agonist mode, individual studies, read-out: Estimated EC50, BrdU incorporation
Procedure: 3. T47D Cell Proliferation Assay
The objective of this assay is the determination of progestational and antiprogestational potency by using a cell proliferation assay in T47D cells. A compound's effect on DNA synthesis in T47D cells is measured.
DMEM:F12 (1:1) (GIBCO, BRL) supplemented with 10% (v/v) fetal bovine serum (not heat-inactivated), 100U/ml penicillin, […] streptomycin, and 2 mM GlutaMax (GIBCO, BRL).
Minimum Essential Medium (MEM) (#51200-038GIBCO, BRL) phenol red-free supplemented with 0.5% charcoal stripped fetal bovine serum, 100U/ml penicillin, 200 mg/ml streptomycin, and 2 mM GlutaMax (GIBCO, BRL).
Stock T47 D cells are maintained in growth medium. For BrdU incorporation assay, cells are plated in 96-well plates (Falcon, Becton Dickinson Labware) at 10,000 cells/well in growth medium. […]
At the end of BrdU labeling, the medium is removed and BrdU incorporation is measured using a cell proliferation ELISA kit (#RPN 250, Amersham Life Science) according to manufacturer's instructions. […] Then 25 μl of 1 M sulfuric acid is added to each well to stop color reaction and optical density is read in a plate reader at 450 nm within 5 min.
Square root-transformed data are used for analysis of variance and nonlinear dose response curve fitting for both agonist and antagonist modes. […] EC50 or IC50 values are calculated from the retransformed values. […]

[2] = read-out: Decidualization, percentage inhibition at the dose specified

Compound: C#C[C@]1(O)CC[C@H]2[C@@H]3CCC4=CC(=O)CC[C@@H]4[C@H]3C(=C)C[C@@]21CC [3-Ketodesogestrel, reference compound]
Estimated average EC50 (decidual response) [1]: 0.10 mg/kg
Estimated EC50 for uterine wet weight (decidual response) [1]: 0.10 mg/kg and 0.06 mg/kg and 0.11 mg/kg

Compound: CC1(C)OC(=O)Nc2ccc(-c3ccc(F)c(C#N)c3)cc21 [Compound 1, 5-(4,4Dimethyl-2-oxo-1,4-dihydro-2H-benzo[d][1,3]oxazin-6-yl)-2-fluoro-benzonitrile]
inhibition at 1 mg/kg [1, 2]: 80%

Compound: CC1(C)OC(=O)Nc2ccc(-c3cc(F)cc(C(F)(F)F)c3)cc21 [Compound 2, 6-(3-Fluoro-5-trifluoromethyl-phenyl)-4,4-dimethyl-1,4-dihydro-benzo[d][1,3]oxazin-2-one]
inhibition at 1 mg/kg [1, 2]: 50%
melting point: 207 to 208 °C

Compound: CC1(C)OC(=O)Nc2ccc(-c3cccc(F)c3)cc21 [Compound 3, 6-(3-Fluoro-phenyl)-4,4-dimethyl-1,4-dihydro-benzo[d][1,3]-oxazin-2-one]
inhibition at 3 mg/kg [1, 2]: 80%
melting point: 181 to 182 °C

Compound: CC1(C)OC(=O)Nc2ccc(-c3cc(Cl)cc(Cl)c3)cc21 [Compound 4, 6-(3,5dichloro-phenyl)-4,4-dimethyl-1,4-dihydrobenzo-[d][1,3]oxazin-2-one]
inhibition at 1 mg/kg [1, 2]: 60%
melting point: 245 to 246 °C

Compound: CC1(C)OC(=O)Nc2ccc(-c3cc(C#N)ccc3F)cc21 [Compound 5, 3-(4,4-Dimethyl-2-oxo-1,4-dihydro-2H-benzo[d][1,3]oxazin-6-yl)-4-fluoro-benzonitrile]
inhibition at 1 mg/kg [1, 2]: 60%
melting point: 229 to 230 °C

Compound: CC1(C)OC(=O)Nc2ccc(-c3cc(F)cc([N+](=O)[O-])c3)cc21 [Compound 6, 6-(3-Fluoro-5-nitro-phenyl)-4,4-dimethyl-1,4dihydro-benzo[d][1,3]oxazin-2-one]
inhibition at 1 mg/kg [1, 2]: 50%
melting point: 260 to 261 °C

Compound: CC1(C)OC(=O)Nc2ccc(-c3cc(F)cc(Br)c3)cc21 [Compound 8, 6-(3-Bromo-5-fluorophenyl)-4,4-dimethyl-1,4-dihydrobenzo[d][1,3]oxazin-2-one]
inhibition at 3 mg/kg [1, 2]: 50%
melting point: 182 to 183 °C

Compound: Cc1cc(C#N)sc1-c1ccc2c(c1)C1(CCCCC1)OC(=O)N2 [Compound 10, 5-(1,2-Dihydro-2-oxospiro[4H-3,1-benzoxazine-4,1-cyclohexan]-6-yl)-4-methyl-2-thiophenecabonitrile]
Decidualization, percentage inhibition at the dose specified ([1]; dose 10 mg/kg): 50% @ 1O

Compound: N#Cc1ccc(-c2ccc3c(c2)C2(CCCCC2)OC(=O)N3)s1 [Compound 11, 5-(1,2-Dihydro-2-oxospiro[4H-3,1-benzoxazine-4,1-cyclohexan]-6-yl)-2-thiophenecarbonitrile]
inhibition at 10 mg/kg ([1]; dose 10 mg/kg, read-out: Decidualization, percentage inhibition at the dose specified): 50%
melting point: 243 to 245 °C

Compound: CC1(C)OC(=O)Nc2ccc(-c3ccc(C#N)s3)cc21 [Compound 12, 5-(4,4-Dimethyl-2-oxo-1,4-dihydro-2H-benzo[d][1,3]oxazin-6-yl)-thiophene-2-carbonitrile]
Decidualization IC50 [1]: 3.34 ± 0.22 mg/kg
melting point: 264 to 266 °C

Compound: CC1(C)OC(=O)Nc2ccc(-c3cc(F)cc(Cl)c3)cc21 [Compound 14, 6-(3-Chloro-5fluoro-phenyl)-4,4dimethyl-1,4-dihydro-benzo[d][1,3]oxazin-2-one]
inhibition at 3 mg/kg [1, 2]: 50%

Continued, in another order:

Decidualization IC50 [1]: 3 mg/kg
melting point: 174 to 175 °C
Compound: CC1(C)OC(=O)Nc2ccc(-c3cccc(Br)c3)cc21 [Compound 13]

Decidualization IC50 [1]: 3 mg/kg
melting point: 250 to 252 °C
Compound: N#Cc1cc(F)cc(-c2ccc3c(c2)C(C2CC2)(C2CC2)OC(=O)N3)c1 [Compound 15, 3-(4,4Dicyclopropyl-2-oxo-1,4-dihydro-2H-benzo[d][1,3]oxazin-6-yl)5-fluoro-benzonitrile]

melting point: 211 to 212 °C
Compound: CC1(C)OC(=O)Nc2ccc(-c3cncc(Br)c3)cc21 [Compound 16, 6-(5-Bromo-pyridin-3-yl)-4,4-dimethyl-1,4-dihydro-benzo[d][1,3]oxazin-2-one]
inhibition at 3 mg/kg [1, 2]: 50%

Decidualization IC50 [1]: 2.3 ± 0.46 mg/kg
Compound: CC1(C)OC(=O)Nc2ccc(-c3csc(C#N)c3)cc21 [Compound 17, 4-(4.4-Dimethyl-2-oxo-1.4dihydro-2H-benzo[d][1,3]oxazin-6-yl)thiophene2-carbonitrile]

Decidualization IC50 [1]: 1.5 mg/kg
Compound: Cc1cc(C#N)sc1-c1ccc2c(c1)C(C)(C)OC(=O)N2 [Compound 18, 5-(4. 4-Dimethyl-2-oxo-1. 4-dihydro-2H-benzo[d][1,3]oxazin-6-yl)-4-methyl-thiophene-2-carbonitrile]

Decidualization IC50 [1]: 0.35 mg/kg
Compound: CC1(C)OC(=O)Nc2ccc(-c3cc(F)cc(C#N)c3)cc21 [Compound 19, 3-(4,4-Dimethyl-2-oxo-1,4-dihydro-2H-benzo[d][1,3]oxazin-6-yl)-5-fluorobenzonitrile]

Decidualization IC50 [1]: 1 mg/kg
Compound: CC1(C)OC(=O)Nc2ccc(-c3ccc(F)c(Cl)c3)cc21 [Compound 20, 6-(3-Chloro-4-fluoro-phenyl)-4,4-dimethyl-1,4-dihydro-benzo[d][1,3]oxazin-2-one]

Estimated average EC50 (decidual response) [1]: 0.10 mg/kg
Compound: C#C[C@]1(O)CC[C@H]2[C@@H]3CCC4=CC(=O)CC[C@@H]4[C@H]3CC[C@@]21CC [Levonorgestrel, reference compound]
Estimated EC50 for uterine wet weight (decidual response) [1]: 0.08 mg/kg and 0.12 mg/kg and 0.09 mg/kg (2×)

Estimated EC50 for uterine wet weight (decidual response) [1]: 0.42 mg/kg and 0.39 mg/kg (2×)
EC50 (T47D cells; Homo sapiens, T47D): 0.019 nM
Compound: CC(=O)O[C@]1(C(C)=O)CC[C@H]2[C@@H]3C[C@H](C)C4=CC(=O)CC[C@]4(C)[C@H]3CC[C@@]21C [MPA, medroxyprogesterone acetate, reference compound]

Estimated average EC50 (decidual response) [1]: 5.62 mg/kg
Estimated EC50 for uterine wet weight (decidual response) [1]: 5.50 mg/kg
Compound: CC(=O)[C@H]1CC[C@H]2[C@@H]3CCC4=CC(=O)CC[C@]4(C)[C@H]3CC[C@]12C [Progesterone, reference compound]

EC50 (T47D cells): 0.017 nM and 0.014 nM and 0.019 nM
Compound: C[C@H](O)C(=O)[C@@]1(C)CC[C@H]2[C@@H]3CCC4=CC(=O)CCC4=C3CC[C@@]21C [Trimegestone]
